From patent US11091428B2 (HAPLOGEN GMBH, priority 2016, dated 2021)

Experiments:
[1] = system: picornaviruses (CVB1, HRV-A2, HRV-A23, EV-68); assay: Anti-picornavirus cytopathic effect (CPE) reduction assay on HeLa H1 cells; assay type: cell-based; conditions: Enterovirus B, HeLa H1, 48 h, HeLa H1 cells, 48 h, category from averaging the EC50 values from four picornaviruses (CVB1, HRV-A2, HRV-A23, EV68); read-out: EC50 values of the compounds determined in the anti-picornavirus assay
How it was run: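 Cytopathic-effect protection: EC50 from non-linear regression of cell viability (CellTiterBlue, 560/590 nm) 48 h post-infection, scaled between infected and mock-infected vehicle wells. Compound dilutions added to HeLa H1 cells 2 h before virus (MOI causing complete CPE within 2 days), in DMEM + 2% FBS; categories average the four viruses.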

PLA2G16 = molecular target: T1, PLA2G16 (Homo sapiens, UniProt P53816); assay: Enzyme activity assay for PLA2G16 (Red/Green BODIPY PC-A2 fluorescence); assay type: biochemical; conditions: His-tagged PLA2G16, 4 min pre-incubation, 2 nM to 50 μM; read-out: IC50 values of the compounds determined in the enzyme activity assay for PLA2G16
T1 construct: Hexa-His (N); made in house; host or cells: E. coli BL21(DE3)
T1 sequence (P53816 1-162): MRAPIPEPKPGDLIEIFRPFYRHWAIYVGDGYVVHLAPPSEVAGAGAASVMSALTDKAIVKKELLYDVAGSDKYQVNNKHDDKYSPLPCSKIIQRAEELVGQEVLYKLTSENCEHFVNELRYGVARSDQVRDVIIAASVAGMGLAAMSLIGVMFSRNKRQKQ
How it was run: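 IC50 from non-linear fits of fluorescence rise (480/530 nm, 10 min) after adding Red/Green BODIPY PC-A2 mixed with DOPC/DOPG/cholesterol liposomes. Recombinant His-tagged human enzyme, bacterially expressed, was first exposed to inhibitor (2 nM–50 μM final) for 4 min in 50 mM Tris pH 8.5, 100 mM NaCl, 5 mM glutathione.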

SMILES	EC50 [1] [nM]	IC50 (PLA2G16) [nM]
COc1ccccc1N(C=O)C(C)C(=O)C(=O)NCc1cnccn1 (centres unmarked) [FP 104, 3-[N-(2-Methoxyphenyl)formamido]-2-oxo-N-[(pyrazin-2-yl)methyl]butanamide]	> 10000	1000 to 10000
COc1ccccc1N(C=O)C(C)C(=O)C(=O)NC(C)(C)C (centres unmarked) [FP 75, N-tert-Butyl-3-[N-(2-methoxyphenyl)formamido]-2-oxobutanamide]	1000 to 10000	< 1000
COc1ccccc1OC(C)C(=O)C(=O)NC(C)C (centres unmarked) [FP 135, 3-(2-Methoxyphenoxy)-2-oxo-N-(propan-2-yl)butanamide]	1000 to 10000	< 1000
CC(C)CNC(=O)C(=O)C(C)N(C=O)Cc1ccccc1 (centres unmarked) [FP 47, 3-(N-Benzylformamido)-N-(2-methylpropyl)-2-oxobutanamide]	1000 to 10000	< 1000
O=C(NC1CCN(C(=O)NC2CCC2)CC1)C(=O)[C@H]1CCC(=O)N1Cc1ccccc1 [FP 324, 4-{2-[(2R)-1-Benzyl-5-oxopyrrolidin-2-yl]-2-oxoacetamido}-N-cyclobutylpiperidine-1-carboxamide]	< 1000	< 1000
O=C(NCC1CCCCC1)C(=O)C1CCC(=O)N1Cc1ccc2c(c1)CNC2=O (centres unmarked) [FP 244, N-(Cyclohexylmethyl)-2-oxo-2-{5-oxo-1-[(1-oxo-2,3-dihydro-1H-isoindol-5-yl)methyl]-pyrrolidin-2-yl}acetamide]	1000 to 10000	< 1000
O=C(NCC1(CO)CC1)C(=O)C1CCC(=O)N1Cc1ccc(Cl)cc1 (centres unmarked) [FP 276, 2-{1-[(4-Chlorophenyl)methyl]-5-oxopyrrolidin-2-yl}-N-{[1-(hydroxymethyl)cyclopropyl]-methyl}-2-oxoacetamide]	1000 to 10000	< 1000
CC(C)C(C(=O)C(=O)NCC1CC1)N(C=O)CC1CCOCC1 (centres unmarked) [FP 34, N-(Cyclopropylmethyl)-4-methyl-3-{N-[(oxan-4-yl)methyl]formamido}-2-oxopentanamide]	1000 to 10000	< 1000
CCC(NC(=O)c1cccnc1)C(=O)C(=O)NCC1CCCCC1 (centres unmarked) [FP 210, N-(Cyclohexylmethyl)-2-oxo-3-[(pyridin-3-yl)formamido]pentanamide]	1000 to 10000	< 1000
O=C(NC1CN(C(=O)C2CCCC2)C1)C(=O)[C@H]1CCC(=O)N1Cc1ccccc1 [FP 319, 2-[(2R)-1-Benzyl-5-oxopyrrolidin-2-yl]-N-(1-cyclopentanecarbonylazetidin-3-yl)-2-oxoacetamide]	1000 to 10000	< 1000
CNC(=O)C(=O)[C@H]1CCC(=O)N1Cc1ccc(Cl)cc1 [FP 283, 2-[(2R)-1-[(4-Chlorophenyl)methyl]-5-oxopyrrolidin-2-yl]-N-methyl-2-oxoacetamide]	1000 to 10000	< 1000
CC(C)(C)C(=O)N1CCC(NC(=O)C(=O)[C@H]2CCC(=O)N2Cc2ccccc2)CC1 [FP 314, 2-[(2R)-1-Benzyl-5-oxopyrrolidin-2-yl]-N-[1-(2,2-dimethylpropanoyl)piperidin-4-yl]-2-oxoacetamide]	1000 to 10000	< 1000
CC(C(=O)C(=O)NCC1CC1)N(C=O)CC1CCN(C(=O)C2CCCCC2)CC1 (centres unmarked) [FP 81, 3-{N-[(1-Cyclohexanecarbonylpiperidin-4-yl)methyl]formamido}-N-(cyclopropylmethyl)-2-oxobutanamide]	> 10000	1000 to 10000
CC(C)CNC(=O)C(=O)C(C)N(C=O)CC(C)(C)C (centres unmarked) [FP 45, 3-[N-(2,2-Dimethylpropyl)formamido]-N-(2-methylpropyl)-2-oxobutanamide]	< 1000	< 1000
CC(C(=O)C(=O)NCCC1CCOCC1)N(C=O)C1CCCCC1 (centres unmarked) [FP 112, 3-(N-Cyclohexylformamido)-N-[2-(oxan-4-yl)ethyl]-2-oxobutanamide]	1000 to 10000	< 1000
CCNC(=O)C(=O)C1N(Cc2ccccc2)C(=O)CC12CC2 (centres unmarked) [FP 348, 2-{5-Benzyl-6-oxo-5-azaspiro[2.4]heptan-4-yl}-N-ethyl-2-oxoacetamide]	< 1000	< 1000
CCC(NC(=O)c1cnccc1C)C(=O)C(=O)NCC1CCCCC1 (centres unmarked) [FP 211, N-(Cyclohexylmethyl)-3-[(4-methylpyridin-3-yl)formamido]-2-oxopentanamide]	1000 to 10000	< 1000
CC(C)NC(=O)C(=O)[C@H]1CCC(=O)N1Cc1ccccc1 [FP 238, 2-[(2R)-1-Benzyl-5-oxopyrrolidin-2-yl]-2-oxo-N-(propan-2-yl)acetamide]	< 1000	< 1000
CC(C(=O)C(=O)NCC1CC1)N(C=O)CC1CCN(C(=O)OC(C)(C)C)CC1 (centres unmarked) [FP 39, tert-Butyl 4-[(N-{1-[(cyclopropylmethyl)carbamoyl]-1-oxopropan-2-yl}formamido)methyl]piperidine-1-carboxylate]	> 10000	1000 to 10000
